Measured values from ChEMBL document CHEMBL3632520, “Correlation of antioxidant activities with theoretical studies for new hydrazone compounds bearing a 3,4,5-trimethoxy benzyl moiety” (Eur J Med Chem, 2015).
Converted amounts (≈) assume the structure as drawn.

Experiments:
Type in all cases: physicochemical
[1] = Antioxidant activity assessed as DPPH radical scavenging activity measured as discoloration incubated for 30 mins in dark
[2] = Antioxidant activity assessed as DPPH radical scavenging activity measured as discoloration incubated for 30 mins in dark relative to control; conditions: 0.5 h
[3] = Antioxidant activity assessed as ferric ion reducing activity using fe3+-TPTZ assessed as fe2+-TPTZ formation after 30 mins by FRAP assay; conditions: 0.5 h

| Structure (SMILES) | IC50 [1] [µg/mL] | inhibition (INH) [2] [%] | Activity [3] [µM] |
| --- | --- | --- | --- |
| CCOC(=O)c1ccc(OCc2cc(OC)c(OC)c(OC)c2)cc1 | > 100 | 10.8 | 27 |
| COc1cc(COc2ccc(C(=O)NN)cc2)cc(OC)c1OC | 264 (≈ 794 µM) | 37.2 | 3515 |
| COc1cc(COc2ccc(C(=O)N/N=C/c3cc(Br)cc(Cl)c3O)cc2)cc(OC)c1OC | > 100 | 15.6 | 125 |
| COc1cc(COc2ccc(C(=O)N/N=C/c3cc(C(C)(C)C)c(O)c(C(C)(C)C)c3)cc2)cc(OC)c1OC | 62 (≈ 113 µM) | 75.3 | 1096 |
| COc1cc(/C=N/NC(=O)c2ccc(OCc3cc(OC)c(OC)c(OC)c3)cc2)cc(OC)c1O | 75 (≈ 151 µM) | 57.9 | 2087 |
| CCOc1cc(/C=N/NC(=O)c2ccc(OCc3cc(OC)c(OC)c(OC)c3)cc2)ccc1O | 106 (≈ 221 µM) | 53.3 | 1844 |
| COc1cc(COc2ccc(C(=O)N/N=C/c3ccc(OC)c(OC)c3OC)cc2)cc(OC)c1OC | > 100 | 10.4 | 1609 |
| COc1cc(/C=N/NC(=O)c2ccc(OCc3cc(OC)c(OC)c(OC)c3)cc2)cc(OC)c1OC | > 100 | 10.4 | 1365 |
| COc1cc(COc2ccc(C(=O)N/N=C/c3cccc(O)c3)cc2)cc(OC)c1OC | > 100 | 9.3 | 1819 |
| COc1cc(COc2ccc(C(=O)N/N=C/c3ccccc3O)cc2)cc(OC)c1OC | > 100 | 9.6 | 26 |
| COc1cc(COc2ccc(C(=O)N/N=C/c3ccc(O)cc3)cc2)cc(OC)c1OC | > 100 | 18.7 | 3056 |
| O=C1O[C@H]([C@@H](O)CO)C(O)=C1O [ASCORBIC ACID] | 40 (≈ 227 µM) | 90.6 | 2562 |
| Cc1cc(C(C)(C)C)c(O)c(C(C)(C)C)c1 [BUTYLATED HYDROXYTOLUENE] | 99.7 (≈ 452 µM) | 54.8 | 2837 |
